Earlier results in patent publication US9457026B2, “Methods for producing aripiprazole suspension and freeze-dried formulation” (OTSUKA PHARMACEUTICAL CO., LTD., priority 2007, dated 2016).

Conditions: room temperature

aqueous solubility: < 1 µg/mL
Compound: O=C1CCc2ccc(OCCCCN3CCN(c4cccc(Cl)c4Cl)CC3)cc2N1 [Aripiprazole]
